Experimental data taken from patent US20100267784A1, “NOVEL 4,5-DIHYDROISOXAZOLES WITH ESTROGENIC ACTIVITY” (priority 2007, published 2010).

Assays:
Type in all cases: cell-based
[1] = target: T1, ERα (Homo sapiens, UniProt P03372); experiment: ERα antagonism reporter (luciferase) assay in transfected COS-1 cells; design: expressed in transfected cells; host or cells: COS-1; details: sample concentration 10 μM with 100 nM E2, complete antagonism corresponding to 5.7, 18 hours
T1 sequence (P03372 1-595): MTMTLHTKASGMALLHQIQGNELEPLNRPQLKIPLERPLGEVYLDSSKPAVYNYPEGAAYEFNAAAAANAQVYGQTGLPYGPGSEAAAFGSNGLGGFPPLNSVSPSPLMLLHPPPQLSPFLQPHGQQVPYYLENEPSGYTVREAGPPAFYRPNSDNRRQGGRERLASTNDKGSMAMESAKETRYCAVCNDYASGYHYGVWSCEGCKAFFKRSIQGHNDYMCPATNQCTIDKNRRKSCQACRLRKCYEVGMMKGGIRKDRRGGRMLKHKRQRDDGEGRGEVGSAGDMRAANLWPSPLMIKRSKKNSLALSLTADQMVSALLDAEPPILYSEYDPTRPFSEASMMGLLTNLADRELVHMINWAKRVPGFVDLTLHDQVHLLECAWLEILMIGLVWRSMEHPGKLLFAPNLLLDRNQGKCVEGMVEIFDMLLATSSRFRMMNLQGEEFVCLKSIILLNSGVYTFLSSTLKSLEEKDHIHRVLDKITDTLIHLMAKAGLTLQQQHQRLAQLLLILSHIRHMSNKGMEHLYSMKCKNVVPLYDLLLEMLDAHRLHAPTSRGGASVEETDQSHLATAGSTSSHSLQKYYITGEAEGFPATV
Description: Determination of the Antiestrogen Activity of the Compounds.
One day before transfection, COS-1 cells were seeded into 1 ml of DMEM (Dulbecco's modified Eagle medium, Gibco) with 10% delipidated fetal bovine serum and 0,25% (vol/vol) Penicillin-Streptomysin (Euroclone) at a density of 70×10^3 cells/well. […] After transfection, the cells received treatment with test compounds giving a final concentration of 10 μM for each compound. In the antagonist test the wells were also treated with 10^−7 M estradiol. After 18 hours, the cells were washed, lysed and assayed for luciferase and normalization for β-galactosidase activities and protein concentrations. The cells were washed with 100 μl of cold phosphate buffered saline (PBS), lysed with 35 μl 1× Reporter lysis Buffer (Promega) and frosted (−70° C.) for 30 minutes. Cell lysates were placed in 1.5 ml of propylene centrifuge tubes and centrifuged with 13200 g for 5 min in room temperature. For β-galactosidase assay 10 μl of supernatant from each cell extract was transferred to a 96-well plate (96 well Elisa Microplates, PS, Microcon) and incubated for 10 min at 37° C. with 65 μl of reaction mixture consisting 0.76 gl 100×Mg-buffer, 12.5 μl ONPG (4 mg/ml), and 54.3 μl of sodium-phosphate buffer (pH 7). The reaction was stopped with treatment of 125 μl Na2CO3. […] For the study of protein concentrations 5 μl of the supernatant was transferred to a 96-well plate (96 well Elisa Microplates, PS, Microcon) and mixed with 200 μl of 1× Bio-rad protein assay reagent. The luciferase activities were measured with Thermo Luminoscan Ascent scanner and the protein concentrations and β-galactosidase activities with Thermo Labsystem Multiscan Ex scanner. Also blank and control samples were measured. During the maintenance, transfection, and treatment with tested compounds the cells were incubated in humidified atmosphere with 5% carbon dioxide at 37° C.

[2] = target: T1, ERα; experiment: ERα reporter (luciferase) transactivation assay in transfected HEK293 cells; design: expressed in transfected cells; host or cells: HEK293; details: sample concentration 10 μM, 24 hours, mean of at least three independent transfections
Outline: (§1)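 HEK293 cells in phenol-free DMEM with 5% delipidated FBS were calcium-phosphate transfected for 4 h with ERα or ERβ vector, pERE2TATA-LUC reporter and pCMVβ control. Test compound (10 μM) or vehicle was applied for 24 h, then luciferase and β-galactosidase were measured. Values are means ±SEM of ≥3 transfections.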

[3] = target: ERβ (Homo sapiens, UniProt Q92731); experiment: ERβ reporter (luciferase) transactivation assay in transfected HEK293 cells; design: expressed in transfected cells; host or cells: HEK293; details: sample concentration 10 μM, 24 hours, mean of at least three independent transfections
Outline: as §1

Chain of ERβ (Q92731 whole entry): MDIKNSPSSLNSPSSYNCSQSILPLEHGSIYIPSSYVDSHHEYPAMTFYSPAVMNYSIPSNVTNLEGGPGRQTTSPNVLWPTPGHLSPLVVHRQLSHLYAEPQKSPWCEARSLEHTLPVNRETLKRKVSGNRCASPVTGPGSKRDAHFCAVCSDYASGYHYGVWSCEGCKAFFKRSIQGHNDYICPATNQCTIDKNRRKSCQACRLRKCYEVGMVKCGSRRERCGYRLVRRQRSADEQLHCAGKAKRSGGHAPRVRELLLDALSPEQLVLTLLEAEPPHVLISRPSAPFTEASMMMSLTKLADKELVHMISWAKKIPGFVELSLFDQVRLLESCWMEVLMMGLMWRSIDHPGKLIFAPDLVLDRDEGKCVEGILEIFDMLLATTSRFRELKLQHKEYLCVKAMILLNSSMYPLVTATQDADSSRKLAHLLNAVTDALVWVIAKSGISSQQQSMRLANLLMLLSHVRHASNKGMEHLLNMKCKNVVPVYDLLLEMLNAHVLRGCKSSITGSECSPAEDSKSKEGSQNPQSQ

SMILES | ERα receptor antagonism relative to 100 nM E2 corresponding 100 [1] | ERα receptor activation relative to 10 nM E2 corresponding 100 [2] | ERβ receptor activation relative to 10 nM E2 corresponding 100 [3]
CC1(c2ccccc2)CC(CCc2ccc(O)cc2)=NO1 (single isomer, unassigned) [87b, 3-[2-(4-Hydroxy-phenyl)-ethyl]-5-methyl-5-phenyl-4,5-dihydro-isoxazole] | 55.0 | 18.7% | 37.4%
Oc1ccc(CCCC2=NOC(Cc3ccccc3)C2)cc1O (single isomer, unassigned) [102a, 5-Benzyl-3-[3-(3,4-dihydroxy-phenyl)-propyl]-4,5-dihydro-isoxazole] | 115.2 | 0.3% | 1.3%
Oc1ccc(CCCC2=NOC(Cc3ccccc3)C2)cc1O (single isomer, unassigned) [102b, 5-Benzyl-3-[3-(3,4-dihydroxy-phenyl)-propyl]-4,5-dihydro-isoxazole] | 104.8 | 2.1% | −1.3%
